Earlier results in publication PMC10651775 (Blood, 2022).

Tested on: R/R ATL
Conditions: phase 2 study (5/16); cited from earlier work

SMILES: Nc1cccc2c1CN(C1CCC(=O)NC1=O)C2=O (stereo not shown) [lenalidomide]
- ORR in nodal or extranodal lesions: 31%
